What all share (assay type): ADME
Series [1] relates to Liver microsome. Briefly: Drug metabolism in human liver microsomes treated with N-desalkylquetiapine at 3 uM after 30 mins by mass spectroscopy. Conditions: 0.5 h.
Series [2] concerns Liver microsome. Briefly: Drug metabolism in human liver microsomes treated with N-desalkylquetiapine at 3 uM after 30 mins by mass spectroscopy in presence of CYP1A2 inhibitor fluvoxamine. Conditions: 0.5 h. For orientation: Microsomes from liver hold many membrane-bound enzymes, among them those of drug oxidation.
Series [3] has as its system Liver microsome. Briefly: Retention time in human liver microsomes after 30 to 60 mins by mass spectroscopy.
Series [4] deals with Liver microsome. Briefly: Drug metabolism in human liver microsomes treated with N-desalkylquetiapine at 3 uM after 30 mins by mass spectroscopy in presence of CYP3A4 inhibitor ketoconazole. Conditions: 0.5 h.
For series [5], the system named is Liver microsome. Kind of series: Drug metabolism in human liver microsomes treated with N-desalkylquetiapine at 3 uM after 30 mins by mass spectroscopy in presence of CYP2C19 inhibitor benzylnirvanol. Conditions: 0.5 h.
Series [6] has as its system Liver microsome. Briefly: Drug metabolism in human liver microsomes treated with N-desalkylquetiapine at 3 uM after 30 mins by mass spectroscopy in presence of CYP2C9 inhibitor sulfaphenazole. Conditions: 0.5 h.
Series [7] has as its system Liver microsome. Kind of series: Drug metabolism in human liver microsomes treated with N-desalkylquetiapine at 3 uM after 30 mins by mass spectroscopy in presence of CYP2D6 inhibitor quinidine. Conditions: 0.5 h.
Series [8] deals with T1, Cytochrome P450 3A4 (Homo sapiens, UniProt P08684). Kind of series: Activity of human CYP3A4 expressed in supersomes co-expressing cytochrome P450 reductase assessed as metabolite M3 formation after 60 mins by LC-MS analysis. Conditions: recombinant enzyme, 1 h.
In series [9] the test system is Liver microsome. Briefly: Drug metabolism in human liver microsomes assessed as 7-hydroxy-N-desalkylquetiapine formation at 3 uM after 30 mins by mass spectroscopy in presence of CYP1A2 inhibitor fluvoxamine. Conditions: 0.5 h.
The target of series [10] is T2, Cytochrome P450 2D6 (Homo sapiens, UniProt P10635). Kind of series: Activity of human CYP2D6 expressed in supersomes co-expressing cytochrome P450 reductase assessed as metabolite M3 formation after 60 mins by LC-MS analysis. Conditions: recombinant enzyme, 1 h.
Series [11] concerns cytochrome P450. Kind of series: Activity of cytochrome P450 in human liver microsomes by LC-MS analysis.
In series [12] the test system is Liver microsome. Briefly: Drug metabolism in human liver microsomes assessed as 7-hydroxy-N-desalkylquetiapine formation at 3 uM after 30 mins by mass spectroscopy in presence of CYP2C19 inhibitor benzylnirvanol. Conditions: 0.5 h.
Series [13] is described as follows: Activity of cytochrome P450 in human liver microsomes assessed as N-desalkylquetiapine sulfoxide formation measured as low-affinity/high-capacity binding constant by LC-MS analysis.
A short description of series [14]: Activity of cytochrome P450 in human liver microsomes assessed as N-desalkylquetiapine sulfoxide formation measured as high-affinity/low-capacity binding constant by LC-MS analysis.
For series [15], the system named is Liver microsome. Briefly: Drug metabolism in human liver microsomes assessed as N-desalkylquetiapine sulfoxide formation at 3 uM after 30 mins by mass spectroscopy. Conditions: 0.5 h.
The test system of series [16] is Liver microsome. Kind of series: Drug metabolism in human liver microsomes assessed as 7-hydroxy-N-desalkylquetiapine formation at 3 uM after 30 mins by mass spectroscopy in presence of CYP2C9 inhibitor sulfaphenazole. Conditions: 0.5 h.
The target of series [17] is T1, Cytochrome P450 3A4. Kind of series: Activity of human CYP3A4 expressed in supersomes co-expressing cytochrome P450 reductase assessed as N-desalkylquetiapine sulfoxide formation after 60 mins by LC-MS analysis. Conditions: recombinant enzyme, 1 h.
The subject of series [18] is Liver microsome. Kind of series: Drug metabolism in human liver microsomes assessed as N-desalkylquetiapine sulfoxide formation at 3 uM after 30 mins by mass spectroscopy in presence of CYP2C9 inhibitor sulfaphenazole. Conditions: 0.5 h.
The nature of series [19]: Activity of cytochrome P450 in human liver microsomes assessed as 7-hydroxy-N-desalkylquetiapine formation measured as substrate inhibition constant by LC-MS analysis.
Series [20] deals with T1, Cytochrome P450 3A4. Briefly: Activity of human CYP3A4 expressed in xenosomes assessed as intrinsic clearance per pmol protein by LC-MS analysis.
In series [21] the target is CYP2D6 (Homo sapiens, UniProt P10635). Kind of series: Activity of human CYP2D6 expressed in supersomes co-expressing cytochrome P450 reductase assessed as substrate depletion after 60 mins by LC-MS analysis. Conditions: read-out: Drug metabolism.
A short description of series [22]: Activity of cytochrome P450 in human liver microsomes assessed as metabolite M3 formation by LC-MS analysis.
In series [23] the target is T2, Cytochrome P450 2D6. Kind of series: Activity of human CYP2D6 expressed in supersomes co-expressing cytochrome P450 reductase assessed as intrinsic clearance per pmol protein by LC-MS analysis. Conditions: recombinant enzyme.
In series [24] the target is T2, Cytochrome P450 2D6. Kind of series: Activity of human CYP2D6 expressed in supersomes co-expressing cytochrome P450 reductase assessed as N-desalkylquetiapine sulfoxide formation after 60 mins by LC-MS analysis. Conditions: recombinant enzyme, 1 h.
Series [25] relates to Liver microsome. Briefly: Drug metabolism in human liver microsomes assessed as N-desalkylquetiapine sulfoxide formation at 3 uM after 30 mins by mass spectroscopy in presence of CYP3A4 inhibitor ketoconazole. Conditions: 0.5 h.
Series [26] concerns Liver microsome. Briefly: Drug metabolism in human liver microsomes assessed as 7-hydroxy-N-desalkylquetiapine formation at 3 uM after 30 mins by mass spectroscopy. Conditions: 0.5 h.
For series [27], the system named is Liver microsome. Kind of series: Drug metabolism in human liver microsomes assessed as N-desalkylquetiapine sulfoxide formation at 3 uM after 30 mins by mass spectroscopy in presence of CYP2C19 inhibitor benzylnirvanol. Conditions: 0.5 h.
Series [28] concerns the target T2, Cytochrome P450 2D6. Briefly: Activity of human CYP2D6 expressed in supersomes co-expressing cytochrome P450 reductase assessed as 7-hydroxy-N-desalkylquetiapine formation after 60 mins by LC-MS analysis. Conditions: recombinant enzyme, 1 h.
The target of series [29] is CYP3A4 (Homo sapiens, UniProt P08684). Kind of series: Activity of human CYP3A4 expressed in xenosomes assessed as substrate depletion after 60 mins by LC-MS analysis. Conditions: recombinant CYP3A4 expressed in xenosomes, read-out: Drug metabolism.
Series [30] has as its system Liver microsome. Briefly: Drug metabolism in human liver microsomes assessed as 7-hydroxy-N-desalkylquetiapine formation at 3 uM after 30 mins by mass spectroscopy in presence of CYP2D6 inhibitor quinidine. Conditions: 0.5 h.

T2 sequence (P10635 whole entry): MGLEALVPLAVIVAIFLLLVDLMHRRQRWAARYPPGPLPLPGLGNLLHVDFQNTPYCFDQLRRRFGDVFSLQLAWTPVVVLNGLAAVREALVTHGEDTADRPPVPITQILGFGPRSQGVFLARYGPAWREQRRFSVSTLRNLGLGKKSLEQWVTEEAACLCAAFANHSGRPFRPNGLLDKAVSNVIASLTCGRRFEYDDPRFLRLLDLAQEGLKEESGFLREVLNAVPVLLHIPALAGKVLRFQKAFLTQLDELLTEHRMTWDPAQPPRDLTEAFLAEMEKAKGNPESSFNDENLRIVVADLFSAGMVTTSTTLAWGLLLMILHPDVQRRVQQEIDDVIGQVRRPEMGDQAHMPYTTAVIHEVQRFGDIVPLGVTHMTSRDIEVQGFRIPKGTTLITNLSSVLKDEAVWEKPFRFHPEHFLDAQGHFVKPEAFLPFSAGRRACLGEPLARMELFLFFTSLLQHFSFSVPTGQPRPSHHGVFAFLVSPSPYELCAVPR
T1 sequence (P08684 whole entry): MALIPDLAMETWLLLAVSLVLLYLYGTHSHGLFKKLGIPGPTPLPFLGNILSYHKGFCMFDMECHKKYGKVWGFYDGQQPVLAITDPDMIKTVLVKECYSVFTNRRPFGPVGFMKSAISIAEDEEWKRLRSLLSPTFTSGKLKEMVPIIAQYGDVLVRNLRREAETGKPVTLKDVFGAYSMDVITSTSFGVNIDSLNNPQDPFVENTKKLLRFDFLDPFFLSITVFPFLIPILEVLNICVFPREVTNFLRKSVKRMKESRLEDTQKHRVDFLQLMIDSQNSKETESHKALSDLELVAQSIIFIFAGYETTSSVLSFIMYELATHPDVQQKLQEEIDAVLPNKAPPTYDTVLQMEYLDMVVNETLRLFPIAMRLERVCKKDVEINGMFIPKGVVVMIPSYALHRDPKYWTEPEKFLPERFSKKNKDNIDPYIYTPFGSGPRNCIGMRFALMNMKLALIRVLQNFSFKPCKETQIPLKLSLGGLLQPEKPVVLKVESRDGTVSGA
Sequence of CYP2D6 (P10635 whole entry): as the sequence (P10635 whole entry) above
Sequence of CYP3A4 (P08684 whole entry): as the sequence (P08684 whole entry) above

Turning to `Oc1ccc2c(c1)Sc1ccccc1C(N1CCNCC1)=N2`, the Drug metabolism entry in [1] is “metabolite_detected”; in series [2], “metabolite_detected”; in series [4] it was “metabolite_not_detected”; in series [5] it was “metabolite_detected”; in [6], “metabolite_detected”; in series [7], “metabolite_not_detected”. In addition, the Retention_time in series [3] is 4.31 min.

With `[O-][S+]1c2ccccc2N=C(N2CCNCC2)c2ccccc21` (configuration not stated), the Drug metabolism entry in [1] was “metabolite_detected”; in series [2], “metabolite_detected”; in [4], “metabolite_not_detected”; in [5], “metabolite_detected”; in series [6] it was “metabolite_detected”; in series [7], “metabolite_not_detected”. Further, in series [3], the Retention_time stood at 3.98 min.

In the case of `c1ccc2c(c1)N=C(N1CCNCC1)c1ccccc1S2`, the Drug metabolism result in [8], in series [9], in series [10], in series [12], in [15] and in [16] was “metabolite_detected” each time. For the same molecule, the Drug metabolism entry in series [17] is “metabolite_detected”; in [18], “metabolite_detected”; in series [24], “metabolite_detected”; in series [25], “metabolite_not_detected”; in series [26], “metabolite_detected”; in series [27], “metabolite_detected”. Besides, the Drug metabolism result is reported as “metabolite_detected” in series [28] and “metabolite_not_detected” in series [30]. The Km (commonly the concentration of substrate that gives half-maximal velocity) in series [11] was found to be 110 µM; in series [13], 459 µM; in series [14], 15 µM; in series [22], 199 µM. Further, the Kis in series [19] amounted to 824 µM. Further, the figures for the CL in series [20] and in series [23] were 0.25 µL/min and 3 µL/min, respectively. Moreover, the metabolised at 1 h came to 47% in series [21] and 6% in series [29].

The values are drawn from ChEMBL document CHEMBL3526075, “Metabolism of the active metabolite of quetiapine, N-desalkylquetiapine in vitro” (Drug Metab Dispos, 2012).
